Reference: patent US11214803B2, “Modulators of YAP1 expression” (Ionis Pharmaceuticals, Inc., priority 2019, dated 2022)
Strand notation (5' to 3'): a small letter for the sugar, then the base; units joined by * are phosphorothioate-linked, units joined directly phosphodiester-linked; [ ] holds rarer units or linkages, { } end groups; capitals alone tell only the bases. k = constrained ethyl (cEt); [5mC] = 5-methylcytosine; d = 2'-deoxy (DNA)

These substances were tested on Yap1 mRNA (assay: Antisense inhibition of human Yap1 in A-431 cells by cEt gapmers, single dose (Example 4, RTS4814)). Conditions: Table 14; A-431 cells, 5,000 cells per well, free uptake, 2,000 nM, approximately 48 hours; RTS4814; normalized to RIBOGREEN; Yap1 mRNA relative to untreated control; * = targets amplicon region of primer probe set.
Format: cell-based
Procedure: Modified oligonucleotides were designed to target a Yap1 nucleic acid and were tested for their effect on Yap1 mRNA level in vitro. The modified oligonucleotides were tested in a series of experiments that had similar culture conditions. Cultured A-431 cells at a density of 5,000 cells per well were treated using free uptake with 2,000 nM of modified oligonucleotide. After a treatment period of approximately 48 hours, RNA was isolated from the cells and Yap1 mRNA levels were measured by quantitative real-time RTPCR. Human primer probe set RTS4814 was used to measure mRNA levels. Yap1 mRNA levels were normalized to total RNA content, as measured by RIBOGREEN®. Results are presented in the tables below as percent control of the amount of Yap1 mRNA relative to untreated control cells (% UTC). The modified oligonucleotides with percent control values marked with an asterisk (*) target the amplicon region of the primer probe set. Additional assays may be used to measure the potency and efficacy of the modified oligonucleotides targeting the amplicon region.
The newly designed modified oligonucleotides in the Tables below were designed as 3-10-3 cEt gapmers. The gapmers are 16 nucleosides in length, wherein the central gap segment comprises of ten 2′-deoxynucleosides and is flanked by wing segments on the 5′ direction and the 3′ direction comprising three nucleosides each. Each nucleoside in the 5′ wing segment and each nucleoside in the 3′ wing segment has a cEt sugar modification. The internucleoside linkages throughout each gapmer are phosphorothioate (P═S) linkages. All cytosine residues throughout each gapmer are 5-methylcytosines.
“Start site” indicates the 5′-most nucleoside to which the gapmer is targeted in the human gene sequence. “Stop site” indicates the 3′-most nucleoside to which the gapmer is targeted human gene sequence. […] Activity of the modified oligonucleotide may be defined in a different experiment.

Going from “1075904 (kG*kT*kA*dT*dA*dG*dG*dA*dT*d[5mC]*dT*dA*d[5mC]*kT*kA*kA; antisense) [Compound 1075904]” to “1074144 (antisense kA*kG*k[5mC]*dG*dG*d[5mC]*dG*dA*d[5mC]*dG*dG*d[5mC]*dT*kG*k[5mC]*kG) [Compound 1074144]”, the “YAP1 (% UTC)” value rises from 51 % UTC to 92 % UTC.

Going from “1074176 (antisense k[5mC]*kT*k[5mC]*d[5mC]*d[5mC]*d[5mC]*d[5mC]*dG*dA*d[5mC]*dG*d[5mC]*dG*k[5mC]*kA*k[5mC]) [Compound 1074176]” to “1075424 (antisense kT*kT*kA*dT*dT*dA*dA*dT*d[5mC]*d[5mC]*dT*dG*dT*k[5mC]*k[5mC]*kA) [Compound 1075424]”, the “YAP1 (% UTC)” value falls from 84 % UTC to 18 % UTC.

First: 1076032 (kT*kA*kT*dA*dA*dT*dT*dT*d[5mC]*d[5mC]*d[5mC]*dT*dG*kA*kT*k[5mC]; antisense) [Compound 1076032]
Second: 1076000 (k[5mC]*k[5mC]*kT*dA*dA*dT*dA*dT*dG*dA*d[5mC]*dT*d[5mC]*k[5mC]*kT*kT; antisense) [Compound 1076000]
The “YAP1 (% UTC)” value of the first is higher: 105 % UTC for the first, 4 % UTC for the second.

For “1074592 (antisense kG*kG*kA*dG*d[5mC]*dA*dA*dG*dT*d[5mC]*dT*dT*dG*kT*kA*kA) [Compound 1074592]”, the “YAP1 (% UTC)” value was 23 % UTC.

Same assay, conditions: Table 15; A-431 cells, 5,000 cells per well, free uptake, 2,000 nM, approximately 48 hours; RTS4814; normalized to RIBOGREEN; Yap1 mRNA relative to untreated control; * = targets amplicon region of primer probe set

Compared with “1074593 (antisense kA*kG*kG*dA*dG*d[5mC]*dA*dA*dG*dT*d[5mC]*dT*dT*kG*kT*kA) [Compound 1074593]”, “1075777 (kT*kA*kT*dG*dT*dG*dA*dT*dA*dT*dG*dG*dA*kT*kT*k[5mC]; antisense) [Compound 1075777]” is higher in “YAP1 (% UTC)” value: 6 % UTC for the first, 12 % UTC for the second.

First: 1074785 (kA*k[5mC]*k[5mC]*dA*dT*dA*dA*dG*dT*dA*dG*dA*dT*k[5mC]*kT*kA; antisense) [Compound 1074785]
Second: 1076129 (k[5mC]*kA*kT*dA*dA*dA*d[5mC]*d[5mC]*dT*dT*dA*dG*dT*k[5mC]*k[5mC]*kT; antisense) [Compound 1076129]
The “YAP1 (% UTC)” value of the first is lower: 10 % UTC for the first, 26 % UTC for the second.

With “1075905 (k[5mC]*k[5mC]*kT*dG*dA*dA*d[5mC]*dA*d[5mC]*dA*dG*dG*dA*kG*kT*kA; antisense) [Compound 1075905]” the “YAP1 (% UTC)” value was 43 % UTC.

Same assay, conditions: Table 16; A-431 cells, 5,000 cells per well, free uptake, 2,000 nM, approximately 48 hours; RTS4814; normalized to RIBOGREEN; Yap1 mRNA relative to untreated control cells

Compared with “1075938 (kG*kA*kA*dT*dA*dT*dA*dT*dG*dG*dG*dT*dT*kT*k[5mC]*kA; antisense) [Compound 1075938]”, “1075778 (k[5mC]*kA*kT*dT*dT*dA*dT*dA*d[5mC]*d[5mC]*dA*dG*dG*k[5mC]*kA*k[5mC]; antisense) [Compound 1075778]” is lower in “YAP1 (% UTC)” value: 55 % UTC for the first, 3 % UTC for the second.

“1076290 (k[5mC]*kT*k[5mC]*d[5mC]*dA*dA*d[5mC]*dG*dG*dA*d[5mC]*dA*dA*k[5mC]*kT*kT; antisense) [Compound 1076290]” and “1075746 (kG*kA*kT*dT*dA*dA*d[5mC]*d[5mC]*d[5mC]*dA*dG*dT*dA*kG*kA*kG; antisense) [Compound 1075746]” are the same in “YAP1 (% UTC)” value: 28 % UTC for the first, 28 % UTC for the second.

Compared with “1075042 (antisense kT*kT*kA*dA*dA*dA*dG*dG*dT*dT*dT*dG*dG*k[5mC]*kA*k[5mC]) [Compound 1075042]”, “1075906 (k[5mC]*k[5mC]*kT*d[5mC]*dA*dA*dT*dA*d[5mC]*dA*dG*dA*dT*kG*kA*kA; antisense) [Compound 1075906]” is higher in “YAP1 (% UTC)” value: 17 % UTC for the first, 39 % UTC for the second.

Compared with “1074370 (antisense kT*kT*kG*dA*dT*dA*dG*dT*dA*dT*d[5mC]*dA*d[5mC]*k[5mC]*kT*kG) [Compound 1074370]”, “1074242 (antisense kA*kG*kA*dA*dG*dA*dT*dG*dT*d[5mC]*dT*dT*dT*kG*k[5mC]*k[5mC]) [Compound 1074242]” is higher in “YAP1 (% UTC)” value: 8 % UTC for the first, 56 % UTC for the second.

Same assay, conditions: Table 17; A-431 cells, 5,000 cells per well, free uptake, 2,000 nM, approximately 48 hours; RTS4814; normalized to RIBOGREEN; Yap1 mRNA relative to untreated control cells

Compared with “1075395 (kA*kT*kG*dA*dA*dT*dA*dA*dG*dT*dA*dT*dG*k[5mC]*k[5mC]*kA; antisense) [Compound 1075395]”, “1075555 (kG*k[5mC]*k[5mC]*dA*dA*dA*dA*dA*dT*dT*d[5mC]*dT*dT*kG*k[5mC]*kA; antisense) [Compound 1075555]” is higher in “YAP1 (% UTC)” value: 4 % UTC for the first, 92 % UTC for the second.

Compared with “1074371 (antisense kG*kT*kT*dG*dA*dT*dA*dG*dT*dA*dT*d[5mC]*dA*k[5mC]*k[5mC]*kT) [Compound 1074371]”, “1074691 (antisense k[5mC]*k[5mC]*k[5mC]*dT*d[5mC]*d[5mC]*d[5mC]*d[5mC]*d[5mC]*dT*dA*dA*dG*k[5mC]*kT*kA) [Compound 1074691]” is higher in “YAP1 (% UTC)” value: 31 % UTC for the first, 76 % UTC for the second.

With “1076291 (kG*kA*kT*dT*dA*dA*dT*dG*dG*dT*dG*dG*d[5mC]*kA*kT*kT; antisense) [Compound 1076291]” the “YAP1 (% UTC)” value was 4 % UTC.

Same assay, conditions: Yap1 mRNA remaining as percent of untreated control; 3-10-3 cEt gapmers; A-431 cells; Table 36

First: 1076502 (k[5mC]*kA*kA*dA*dG*dT*dA*dA*dG*dT*dG*dA*dG*k[5mC]*k[5mC]*k[5mC]; antisense) [compound 1076502]
Second: 1075126 (k[5mC]*kT*kT*dA*dA*dA*dT*d[5mC]*dT*dT*dA*dG*d[5mC]*kA*kA*k[5mC]; antisense) [compound 1075126]
The “YAP1 (% UTC)” value of the first is lower: 17 % UTC for the first, 20 % UTC for the second.

First: 1076086 (kA*kA*k[5mC]*dT*dA*dA*dT*dA*dG*dG*d[5mC]*d[5mC]*dA*kT*k[5mC]*kT; antisense) [compound 1076086]
Second: 1074550 (DNA kA*kT*kA*dT*d[5mC]*dT*dA*d[5mC]*d[5mC]*dG*dT*dA*dT*kG*k[5mC]*k[5mC]; antisense) [compound 1074550]
The “YAP1 (% UTC)” value of the first is higher: 31 % UTC for the first, 23 % UTC for the second.

First: 1075030 (antisense kT*kT*kA*dA*dT*dA*dT*dT*d[5mC]*dG*dA*d[5mC]*dA*k[5mC]*kT*kG) [compound 1075030]
Second: 1074166 (antisense kA*k[5mC]*k[5mC]*d[5mC]*dA*dG*dG*d[5mC]*dG*dA*dG*d[5mC]*dG*kA*kG*kG) [compound 1074166]
The “YAP1 (% UTC)” value of the first is lower: 37 % UTC for the first, 72 % UTC for the second.

“1075862 (antisense k[5mC]*kT*kA*dA*dT*dA*dA*d[5mC]*dT*dT*dG*dT*d[5mC]*kT*kA*k[5mC]) [compound 1075862]” was tested, and the “YAP1 (% UTC)” value was 67 % UTC.

Same assay, conditions: Yap1 mRNA remaining as percent of untreated control; 3-10-3 cEt gapmers; A-431 cells; Table 37

Going from “1074135 (k[5mC]*k[5mC]*kG*d[5mC]*dG*dG*d[5mC]*d[5mC]*d[5mC]*d[5mC]*dG*d[5mC]*dA*kT*k[5mC]*k[5mC]; antisense) [compound 1074135]” to “1074327 (antisense kT*kA*k[5mC]*dG*d[5mC]*dA*dG*dG*dG*d[5mC]*dT*dA*dA*k[5mC]*kT*k[5mC]) [compound 1074327]”, the “YAP1 (% UTC)” value falls from 91 % UTC to 39 % UTC.

First: 1075383 (antisense kA*kA*kT*dT*dA*dT*dT*dA*d[5mC]*d[5mC]*d[5mC]*dT*dA*k[5mC]*kT*k[5mC]) [compound 1075383]
Second: 1075703 (kG*kG*kA*dG*dA*dA*dA*dG*d[5mC]*d[5mC]*dA*dT*d[5mC]*kA*kA*kG; antisense) [compound 1075703]
The “YAP1 (% UTC)” value of the first is higher: 45 % UTC for the first, 10 % UTC for the second.

Going from “1076375 (antisense kT*kA*kT*dA*dA*d[5mC]*dG*dG*dA*dT*dA*dT*dA*k[5mC]*kA*kA) [compound 1076375]” to “1075607 (antisense kA*kA*kA*dA*d[5mC]*dG*dG*dT*dG*dT*dG*dA*dA*kG*kA*kA) [compound 1075607]”, the “YAP1 (% UTC)” value rises from 22 % UTC to 45 % UTC.

Same assay, conditions: table after Table 37, headed TABLE 32 (gapmers targeting SEQ ID NO.: 3); A-431 cells, free uptake, 2,000 nM, approximately 48 hours, RTS4814

For “1074882 (kG*k[5mC]*kT*dA*dA*d[5mC]*dT*d[5mC]*d[5mC]*dT*dG*d[5mC]*d[5mC]*kG*kA*kA; antisense) [compound 1074882]”, the “YAP1 (% UTC)” value was 73 % UTC.
